# Patent US20140308357A1, “MELATONIN-BASED SOLUTIONS AND POWDERS FOR THEIR PREPARATION” (Eratech S.R.L., priority 2011, published 2014)
# How the values were obtained:
# [1] = cited from earlier work
# [2] = Dissolution speed of the powder for reconstitution in water/PEG-400 (80/20); format: physicochemical; conditions: 25° C.
# Description: The entire test was conducted in temperature conditions of 25° C.
# After 1 minute of manual stirring the two solutions were left to settle for 1 minute.
# After 1 minute of sedimentation, the supernatant solution was sampled by taking 1 ml of it and analysing it according to the HPLC method described previously.
# [3] = Osmolality and pH of solutions for administration in Water/PEG 400; format: physicochemical
# [4] = Solubility of the powder for reconstitution (saturated solution, filtered, HPLC); format: physicochemical; conditions: thermodynamic from solid
# Description: Following the preparation of a saturate solution of the powders obtained, the same solution was filtered with a […] membrane and the filtered solution obtained was analysed by HPLC according to the method described previously.
# [5] = Water/PEG 400 ratio 70/30, melatonin 18 mg/ml
# [6] = Water/PEG 400 ratio 75/25, melatonin 14 mg/ml
# [7] = Water/PEG 400 ratio 80/20, melatonin 10 mg/ml
# [8] = Water/PEG 400 ratio 85/15, melatonin 7 mg/ml
# [9] = Water/PEG 400 ratio 90/10, melatonin 5 mg/ml
compound,measurement,setting,value
"COc1ccc2[nH]cc(CCNC(C)=O)c2c1 [Melatonin raw material, Melatonin]",Concentration of melatonin in plasma,"[1]; endogenous, circulates bound to albumin",0.01 to 0.3 ng/mL
same,Bioavailability,[1]; in vivo,approximately 15%
same,Clearance following first passage through the liver,[1]; in vivo,90%
same,Half-life,[1]; in vivo,30 to 60 min
same,Visual inspection of the preparation,"[2]; 30 mg melatonin in 3 ml water/PEG-400 (80/20), 1 minute manual stirring, after 1 minute settling",presence of undissolved particulate
same,Concentration of melatonin in the supernatant solution,"[2]; 30 mg melatonin in 3 ml water/PEG-400 (80/20), 1 minute stirring and 1 minute sedimentation",7100 µg/mL
same,Concentration of melatonin in solution,"[2]; water/PEG-400 (80/20), after 10 minutes of stirring",7900 µg/mL
same,Osmolality,[3]; [5],1310 mOsm/Kg
same,pH,[3]; [5],5.2
same,Osmolality,[3]; [6],1014 mOsm/Kg
same,pH,[3]; [6],5.2
same,Osmolality,[3]; [7],754 mOsm/Kg
same,pH,[3]; [7],5.2
same,Osmolality,[3]; [8],530 mOsm/Kg
same,pH,[3]; [8],5.2
same,Osmolality,[3]; [9],335 mOsm/Kg
same,pH,[3]; [9],5.2
same,solubility,"[4]; purified water, water, Water (Table 3a)",1.8 mg/mL
same,solubility,"[4]; purified water, water, Water (Table 3b)",1.7 mg/mL
same,solubility,"[4]; water/PEG-200 (75/25), aqueous with cosolvent or surfactant or cyclodextrin, Water-PEG 75/25, PEG 200",10.5 mg/mL
same,solubility,"[4]; water/PEG-350 (75/25), aqueous with cosolvent or surfactant or cyclodextrin, Water-PEG 75/25, PEG 350",16.9 mg/mL
same,solubility,"[4]; water/PEG-400 (75/25), aqueous with cosolvent or surfactant or cyclodextrin, Water-PEG 75/25, PEG 400",14.5 mg/mL
same,solubility,"[4]; water/PEG-400 (80/20), aqueous with cosolvent or surfactant or cyclodextrin, Water-PEG-400 ratio 80-20",11.1 mg/mL
same,solubility,"[4]; water/PEG-400 (90/10), aqueous with cosolvent or surfactant or cyclodextrin, Water-PEG-400 ratio 90-10",5 mg/mL
same,solubility,"[4]; water/ethanol (70/30), aqueous with cosolvent or surfactant or cyclodextrin, Water-Ethanol ratio 70-30",19.7 mg/mL
same,solubility,"[4]; water/ethanol (75/25), aqueous with cosolvent or surfactant or cyclodextrin, Water-Ethanol ratio 75-25",14.2 mg/mL
same,solubility,"[4]; water/ethanol (80/20), aqueous with cosolvent or surfactant or cyclodextrin, Water-Ethanol ratio 80-20",8.2 mg/mL
same,solubility,"[4]; water/ethanol (90/10), aqueous with cosolvent or surfactant or cyclodextrin, Water-Ethanol ratio 90-10",3.7 mg/mL
